Experiment [1] deals with active Cdc42 in MDA-MB-231 cells. Description: Active GTPase pull-down (GST-PAK-GBD). In kind it is cell-based, human. The settings on record: 0-3 μM, 1 h. The method, then: (§1) FIG. 5: Cytoskeletal changes induced by IODVA1 treatment. IODVA1 inhibits lamellipodia and circular dorsal ruffle (CDR) formation in MDA-MB-231 cells and decreases Rac activation. (A) IODVA1 inhibits EGF-induced lamellipodia formation in MDA-MB-231 cells. MDA-MB-231 cells were plated on fibronectin-coated coverslips, serum starved for 4 h, incubated with the indicated concentrations of IODVA1 for 1 h, then EGF (50 ng/mL) stimulated, fixed and stained with Phalloidin Alexa Fluor 594 (F-Actin, pseudocolored red) and DAPI (nuclei, pseudocolored blue). […] The percentage of cells with CDRs was counted as the number of cells with CDRs normalized to the total number of cells in the field. Around 150 cells were counted per condition per experiment. Cells with multiple CDRs were counted only once. […] Levels of active Rac (RacGTP, % of control), active Cdc42 (Cdc42GTP, % of control) and active RhoA (RhoAGTP, % of control) were quantified using ImageJ and ImageLab and show combined data as mean±s.e.m. from at least 3 independent experiments. […]
(§2) To confirm that IODVA1 interferes with Rac activation, applicants checked the levels of active Rac and its downstream effector PAK1/2. MDA-MB-231 cells were incubated with IODVA1 (0-3 μM) for 1 h and levels of GTP-bound active Rac were measured by GST-PAK-GBD pull-downs and quantified (FIG. 5C). […]

Experiment [2] deals with active Rac (RacGTP) in MDA-MB-231 cells. Kind of experiment: Active GTPase pull-down (GST-PAK-GBD). In kind it is cell-based, human. To be noted: 0-3 μM, 1 h, dose-dependent. The procedure:
as §1, §2

The next experiment has as its system T47D cells. Kind of experiment: Cell spreading on fibronectin. It is filed as cell-based. The settings on record: 0-3 μM, 30 min. The method, then:
(§3) FIG. 6: IODVA1 inhibits cell-substratum and cell-cell interactions. (A) IODVA1 impedes spreading of MCF7 and MDA-MB-231 cells on fibronectin. MCF7, T47D, and MDA-MB-231 cells were incubated on fibronectin coated coverslips for 10 min, then further incubated with the indicated concentrations of IODVA1 for 30 min in serum-free media, fixed and observed by bright field microscopy. Areas of single cells were calculated from 6 random fields (no less than 300 cells total per treatment group). Results shown are mean±s.e.m. of a single experiment and are representative of three independent experiments. (B) Effects of IODVA1 treatment on spheroid formation in MCF10A, MCF7, T47D, and MDA-MB-231 cells. […] Aggregates and spheroids were dissociated with accutase and trituration, and the number of live cells was determined by trypan blue exclusion. […]
(§4) Applicants assessed if IODVA1 interferes with cell spreading on the extracellular matrix, an event that is also governed by the rearrangement of the actin cytoskeleton. […] No changes in the area in T47D cells were detected, although more rounded cells in the presence of IODVA1 were observed.
(§5) For cell spreading, MDA-MB-231, MCF7 and T47D were seeded on fibronectin-coated coverslips in serum-free media. […] Six random fields were imaged under 20× objective and cell area of individual cells were quantified to assess the degree of spreading (ImageJ). […]

The subject of another experiment is MCF7 cells. Description: Cell spreading on fibronectin. In kind it is cell-based. To be noted: 30 min exposure, serum-free. The method, then:
as §3, §4, §5

For `OC1(c2ccccn2)N=C(Nc2nc3ccccc3[nH]2)N=C1c1ccccn1` (stereo not shown) [IODVA1, (Z)-2-((1H-benzo[d]imidazol-2-yl)imino)-4,5-di(pyridin-2-yl)-2,5-dihydro-1H-imidazol-5-ol], in experiment [1], the “levels of active Cdc42” value was “decreased but only at the highest IODVA1 concentration”. Also, the “levels of active Rac” value in experiment [2] was “significantly decreases”. Further, the “changes in cell area” value with T47D cells is listed as “No changes”. Moreover, the “concentration at which spreading is interfered with (decrease in cell area)” value in the experiment with MCF7 cells was 0.3 µM.

The record behind these values is patent US11564913B2, “Compositions and methods for treating cancer” (Children's Hospital Medical Center, priority 2019, dated 2023).
